Data reported in ChEMBL document CHEMBL1201862, “PubChem BioAssay data set” (2004).
Calls of active or inactive are those of the source. No stated cut-off is given here; in the data, actives have a measured IC50 and inactives only a lower limit.

Target: Envelope glycoprotein gp160 (Human immunodeficiency virus 1, UniProt Q6QLK5)
Assay: cell-free HIV fusion peptide-binding blockers – biochemical, uHTS, fluorescence dequenching, […] (AID 1986)

Sequence of Envelope glycoprotein gp160 (Q6QLK5 whole entry, the tested form may be a part): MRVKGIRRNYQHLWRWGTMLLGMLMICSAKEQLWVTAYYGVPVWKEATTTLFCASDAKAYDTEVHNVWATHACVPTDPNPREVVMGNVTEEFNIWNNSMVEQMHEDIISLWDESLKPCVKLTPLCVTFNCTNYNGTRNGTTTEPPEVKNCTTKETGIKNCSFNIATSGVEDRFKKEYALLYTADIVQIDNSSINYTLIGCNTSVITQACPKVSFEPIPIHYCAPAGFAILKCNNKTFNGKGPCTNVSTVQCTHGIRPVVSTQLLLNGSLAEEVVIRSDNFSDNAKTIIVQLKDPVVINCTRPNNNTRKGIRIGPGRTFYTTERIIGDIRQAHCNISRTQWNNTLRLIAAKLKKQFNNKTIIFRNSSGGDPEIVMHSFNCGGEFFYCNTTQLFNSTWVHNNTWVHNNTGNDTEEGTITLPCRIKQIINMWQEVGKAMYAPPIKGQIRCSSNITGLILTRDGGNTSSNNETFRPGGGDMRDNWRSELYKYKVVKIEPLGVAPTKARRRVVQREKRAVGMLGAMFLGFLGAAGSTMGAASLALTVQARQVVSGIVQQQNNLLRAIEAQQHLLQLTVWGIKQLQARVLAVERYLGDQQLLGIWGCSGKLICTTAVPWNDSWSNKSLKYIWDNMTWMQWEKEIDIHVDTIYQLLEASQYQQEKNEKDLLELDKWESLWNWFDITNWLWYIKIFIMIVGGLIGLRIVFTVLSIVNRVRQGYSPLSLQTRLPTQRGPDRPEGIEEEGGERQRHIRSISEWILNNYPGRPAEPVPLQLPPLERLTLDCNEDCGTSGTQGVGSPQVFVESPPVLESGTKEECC

**Q.** COc1cc(/C=C2\SC(=S)NC2=O)ccc1OS(=O)(=O)c1ccccc1 was tested. Which IC50 did it give?
**A.** 18 µM (active)

**Q.** For CCOc1ccc(NC(=NCc2ccc3c(c2)OCO3)SC2CC(=O)N(c3ccc(C(=O)O)cc3)C2=O)cc1 (stereo not drawn), which IC50 is on record?
**A.** 25.9 µM (active)

**Q.** For CC(Oc1ccc(Cl)cc1Cl)C(=O)Nc1ccc(S(=O)(=O)Nc2cnc3ccccc3n2)cc1 (stereo not drawn), which IC50 is on record?
**A.** 15.7 µM (active)
